What all share (type): cell-based
In experiment [1] the test system is HEK-293 cells. The experiment is described as follows: In vitro cytotoxicity, SRB cell viability assay, normal kidney HEK-293. Conditions: Homo sapiens, HEK293, HEK-293 normal kidney cells, 48 h, mean ± SD, triplicate. The procedure: (§1) For Hepatocarcinoma (HepG2), human lung carcinoma (LU-1), human colorectal adenocarcinoma (SW480) and human normal embryonic kidney (HEK-293) cell lines, the culture medium was Dulbecco’s Modified Eagle’s Medium (DMEM) (Hyclone, USA). The medium supplementation included 10% fetal bovine serum (Hyclone), 100 units/ml penicillin, and 100 μg/ml streptomycin at 37 °C in an atmosphere with 5% CO2 and 95% humidity. For the human leukemia (HL-60) cell line, the maintenance was performed in RPMI-1640 medium (Life Technologies, Inc.) supplemented with 10% heat-inactivated fetal bovine serum (Hyclone) and 100 units/ml penicillin, and 100 μg/ml streptomycin.
(§2) Cell viability assay was conducted using SRB method for HepG2, LU-1, SW480 and HEK-293 cell lines, based on the measurement of protein content. Cells were plated with 180 μl growth medium into 96-microwell plates (4 × 10^4 cells per well) and allowed to grow overnight. Test compounds at various concentrations including 20 μM; 4 μM; 0.8 μM; 0.16 μM with incubation medium were supplemented and cultivated for additional 48 h in the same conditions. Afterwards, the removal of the medium was performed and cold 20% (wt/vol) TCA was used to fix the cell monolayer attached to the wall for 1 h at 4 °C, followed by staining with 1X SRB staining solution at room temperature for 30 min and the removal of the residual dye via repeated washing with 1% (v/v) acetic acid. For OD determination at 515 nm, an ELISA Plate Reader (Bio-Rad) was utilized to analyze the protein-bound dye, which dissolved in 10 mM Tris base solution. […] The cell survival rate (SR) was calculated as SR = [(ODt − OD0)/(ODc − OD0)] × 100, where the subscript 0, t and c represent time-zero, […] and the DMSO control sample.

The subject of experiment [2] is LU-1 cells. Put plainly: In vitro cytotoxicity, SRB cell viability assay, LU-1. The following applies: Homo sapiens, Lu1; LU-1, SRB, 48 h, mean ± SD, triplicate. How it is done:
as §1, §2

Experiment [3] concerns HepG2 cells. Put plainly: In vitro cytotoxicity, SRB cell viability assay, HepG2. Conditions: Homo sapiens, 48 h, mean ± SD, triplicate. How it is done: as §1, §2
In experiment [4] the test system is HL-60 cells. Put plainly: In vitro cytotoxicity, MTT assay, HL-60. Conditions: Homo sapiens; HL-60, MTT, 72 h, mean ± SD, triplicate. How it is done:
as §1
For HL-60 cell line, 5 × 10^3 cells/well were seeded in 96-multiwell plate and cultured overnight. The test compounds were serially diluted to the wells with concentrations ranging at 20 μM; 4 μM; 0.8 μM and 0.16 μM then incubated for 72 h. Thereafter, each well was added with 10 μl of MTT (5 mg/ml in 1X PBS), followed by incubation for 3 h and centrifugation at 1,500 rpm for 10 min. The media were discarded then added 150 μl DMSO to each well. Optical density was measured using a microplate reader at 540 nm.
Background: Tetrazolium dyes change colour on reduction, which living cells bring about.

The test system of experiment [5] is SW480 cells. The experiment is described as follows: In vitro cytotoxicity, SRB cell viability assay, SW480. Conditions: Homo sapiens, 48 h, mean ± SD, triplicate. How it is done:
as §1, §2

The term IC50 denotes the point on the concentration scale where inhibition reaches its midpoint. High values mean lower potency, low ones higher potency.

Structures are written as SMILES.

For the molecule `O=C1Nc2ccccc2/C1=C1/Nc2ccccc2C1=O` [Compound 1, indirubin], the IC50 in experiment [1], in experiment [2], in experiment [3], in experiment [4] and in experiment [5] was more than 20 µM in each case.

Regarding `O=C1Nc2ccccc2C1=C1Nc2ccccc2C1=NO` [Compound 2, indirubin-3′-oxime, reference compound], the IC50 stood at 14.2 ± 0.71 µM in experiment [1]; 16.4 ± 1.05 µM in experiment [2]; 16 ± 0.62 µM in experiment [3]; 16.5 ± 0.94 µM in experiment [4]; 15.7 ± 0.74 µM in experiment [5].

With `C#CCN1C(=O)/C(=C2\Nc3ccccc3C2=O)c2ccccc21` [Compound 3], the IC50 in experiment [1], in experiment [2], in experiment [3], in experiment [4] and in experiment [5] was more than 20 µM throughout.

Regarding `C#CCN1C(=O)/C(=C2\Nc3ccccc3\C2=N/O)c2ccccc21` [Compound 4], the IC50 was 16.2 ± 0.33 µM in experiment [1]; 19.6 ± 1.23 µM in experiment [2]; more than 20 µM in experiment [3]; 15.3 ± 0.35 µM in experiment [4]; 18.6 ± 0.91 µM in experiment [5].

As to `O=C(/C=C/c1ccccc1)c1ccc(OCCn2cc(CN3C(=O)/C(=C4\Nc5ccccc5\C4=N/O)c4ccccc43)nn2)cc1O` [Compound 6a], the 50% inhibitory concentration (IC50) amounted to 3.21 ± 0.43 µM in experiment [1]; 2.26 ± 0.32 µM in experiment [2]; 3.56 ± 0.75 µM in experiment [3]; 2.39 ± 0.46 µM in experiment [4]; 3.36 ± 0.64 µM in experiment [5].

Take `COc1cc(/C=C/C(=O)c2ccc(OCCn3cc(CN4C(=O)/C(=C5\Nc6ccccc6\C5=N/O)c5ccccc54)nn3)cc2O)cc(OC)c1OC` [Compound 6b]: the IC50 in experiment [1], in experiment [2], in experiment [3], in experiment [4] and in experiment [5] was more than 20 µM in each case.

As to `COc1ccccc1/C=C/C(=O)c1ccc(OCCn2cc(CN3C(=O)/C(=C4\Nc5ccccc5\C4=N/O)c4ccccc43)nn2)cc1O` [Compound 6c], the IC50 worked out at 1.19 ± 0.12 µM in experiment [1]; 2.99 ± 0.55 µM in experiment [2]; 3.38 ± 0.68 µM in experiment [3]; 1.43 ± 0.22 µM in experiment [4]; 3.8 ± 0.52 µM in experiment [5].

On to `COc1cccc(/C=C/C(=O)c2ccc(OCCn3cc(CN4C(=O)/C(=C5\Nc6ccccc6\C5=N/O)c5ccccc54)nn3)cc2O)c1` [Compound 6d], for which the IC50 was found to be 2.01 ± 0.64 µM in experiment [1]; 2.85 ± 0.74 µM in experiment [2]; 3.76 ± 0.75 µM in experiment [3]; 3.4 ± 0.76 µM in experiment [4]; 4.46 ± 1.18 µM in experiment [5].

With `COc1ccc(/C=C/C(=O)c2ccc(OCCn3cc(CN4C(=O)/C(=C5\Nc6ccccc6\C5=N/O)c5ccccc54)nn3)cc2O)cc1` [Compound 6e], the IC50 in experiment [1] was 6.98 ± 0.25 µM; in experiment [2] it was 3.28 ± 0.48 µM; in experiment [3], 4.62 ± 1.07 µM; in experiment [4], 3.27 ± 0.37 µM; in experiment [5], 4.66 ± 0.92 µM.

`CCOc1ccccc1/C=C/C(=O)c1ccc(OCCn2cc(CN3C(=O)/C(=C4\Nc5ccccc5\C4=N/O)c4ccccc43)nn2)cc1O` [Compound 6f]: the IC50 in experiment [1] was 1.03 ± 0.11 µM; in experiment [2], 1.3 ± 0.14 µM; in experiment [3] it was 2.01 ± 0.43 µM; in experiment [4] it was 0.98 ± 0.12 µM; in experiment [5], 2.54 ± 0.25 µM.

Regarding `CCOc1cccc(/C=C/C(=O)c2ccc(OCCn3cc(CN4C(=O)/C(=C5\Nc6ccccc6\C5=N/O)c5ccccc54)nn3)cc2O)c1` [Compound 6g], the IC50 in experiment [1] was determined as 1.8 ± 0.21 µM; in experiment [2], 3.96 ± 0.62 µM; in experiment [3], 5.68 ± 0.71 µM; in experiment [4] it was 4.82 ± 0.46 µM; in experiment [5], 4.1 ± 0.57 µM.

In the case of `CCOc1ccc(/C=C/C(=O)c2ccc(OCCn3cc(CN4C(=O)/C(=C5\Nc6ccccc6\C5=N/O)c5ccccc54)nn3)cc2O)cc1` [Compound 6h], the IC50 stood at 9.74 ± 0.53 µM in experiment [1]; 8.74 ± 0.55 µM in experiment [2]; 14.2 ± 1.79 µM in experiment [3]; 6.5 ± 0.98 µM in experiment [4]; 14.1 ± 1.18 µM in experiment [5].

`CCCOc1ccccc1/C=C/C(=O)c1ccc(OCCn2cc(CN3C(=O)/C(=C4\Nc5ccccc5\C4=N/O)c4ccccc43)nn2)cc1O` [Compound 6i]: the IC50 in experiment [1] amounted to 0.85 ± 0.05 µM; in experiment [2] it was 2.07 ± 0.26 µM; in experiment [3] it was 2.28 ± 0.12 µM; in experiment [4] it was 1.28 ± 0.34 µM; in experiment [5], 3.43 ± 0.84 µM.

Take `CCCOc1cccc(/C=C/C(=O)c2ccc(OCCn3cc(CN4C(=O)/C(=C5\Nc6ccccc6\C5=N/O)c5ccccc54)nn3)cc2O)c1` [Compound 6k]: the IC50 in experiment [1] is 1.92 ± 0.17 µM; in experiment [2] it was 2.5 ± 0.34 µM; in experiment [3], 2.95 ± 0.19 µM; in experiment [4], 1.29 ± 0.14 µM; in experiment [5] it was 2.91 ± 0.13 µM.

`CCCOc1ccc(/C=C/C(=O)c2ccc(OCCn3cc(CN4C(=O)/C(=C5\Nc6ccccc6\C5=N/O)c5ccccc54)nn3)cc2O)cc1` [Compound 6l]: the IC50 in experiment [1] was found to be 7.12 ± 0.18 µM; in experiment [2] it was 2.07 ± 0.31 µM; in experiment [3] it was 3.28 ± 0.25 µM; in experiment [4], 1.28 ± 0.16 µM; in experiment [5], 3.03 ± 0.11 µM.

For `CN(C)CCn1cc(CN2C(=O)/C(=C3\Nc4ccccc4\C3=N/O)c3ccccc32)nn1` [Compound 6m], the IC50 in experiment [1] stood at 11.9 ± 1.75 µM; in experiment [2], 8.74 ± 1.06 µM; in experiment [3] it was 15.3 ± 0.17 µM; in experiment [4], 16 ± 0.38 µM; in experiment [5] it was 14.4 ± 0.72 µM.

In the case of `O=C1/C(=C2\Nc3ccccc3\C2=N/O)c2ccccc2N1Cc1cn(CCN2CCCCC2)nn1` [Compound 6n], the IC50 came to 9.52 ± 0.07 µM in experiment [1]; 10.1 ± 0.44 µM in experiment [2]; 11.7 ± 0.23 µM in experiment [3]; 10.4 ± 0.84 µM in experiment [4]; 12.5 ± 0.53 µM in experiment [5].

Take `O=C1/C(=C2\Nc3ccccc3\C2=N/O)c2ccccc2N1Cc1cn(CCn2ccnc2)nn1` [Compound 6o]: the concentration for half-maximal inhibition (IC50) in experiment [1] amounted to 5.89 ± 0.75 µM; in experiment [2], 8.8 ± 0.38 µM; in experiment [3], 11.7 ± 0.26 µM; in experiment [4], 9.39 ± 0.45 µM; in experiment [5], 11.2 ± 0.76 µM.

Regarding `O=C1/C(=C2\Nc3ccccc3\C2=N/O)c2ccccc2N1Cc1cn(CCN2CCOCC2)nn1` [Compound 6p], the 50% inhibitory concentration (IC50) in experiment [1] worked out at 7.72 ± 0.42 µM; in experiment [2] it was 8.61 ± 0.57 µM; in experiment [3], 10.6 ± 0.79 µM; in experiment [4], 11.2 ± 1.04 µM; in experiment [5], 11.7 ± 0.48 µM.

With `Cc1c2ccncc2c(C)c2c1[nH]c1ccccc12` [Ellipticine, reference compound], the IC50 in experiment [1] came out at 0.32 ± 0.03 µM; in experiment [2], 2.5 ± 0.82 µM; in experiment [3], 1.93 ± 0.54 µM; in experiment [4], 2.19 ± 1.12 µM; in experiment [5], 1.76 ± 0.63 µM.

(Values after publication PMC7351726, “Design, synthesis, structure, in vitro cytotoxic activity evaluation and docking studies on target enzyme GSK-3β of new indirubin-3ʹ-oxime derivatives” (Scientific Reports, 2020).)
